In patent publication US6812010B1, “Method for enzymatic preparation of homogentisate” (Aventis Cropscience SA, priority 1997, dated 2004):

Assays:
[1] = system: HPP-oxidase (protein extract from Arthrobacter globiformis); assay: HPP-oxidase activity assay with inhibition by an HPPD inhibitor (HPLC detection of HPA); format: biochemical; conditions: 100 μM of HPPD inhibitor; 30° C., 5 min
Method: The cell pellet, which is approximately 3.4 g, is resuspended in 7 ml of extraction buffer (0.05 M potassium phosphate pH 7.5, 0.1 mM TPP, 0.1 mM MgCl2 and 5 mM mercaptoethanol) and sonicated twice at 23 kHz for 2.5 min. The resulting suspension is centrifuged at 44,000×g for 20 min. The harvested supernatant is again centrifuged at 100,000×g for 60 min. 0.7 ml of 2% protamine sulphate in the extraction buffer is added to the new 7-ml supernatant, followed by gentle stirring. The precipitate which forms is removed by a centrifugation at 20,000×g for 20 min. Ammonium sulphate is gradually added to the supernatant thus obtained so as to reach 60% saturation. This new preparation is stirred for 30 min., and the precipitate formed harvested by centrifugation at 20,000×g for 20 min. The pellet is redissolved in 0.5 ml of extraction buffer and aliquoted in 0.1-ml fractions, these fractions being kept at −80° C. before use.
The HPP-oxidase activity is measured in a 96-well microtitration plate with 200 μl of reaction per well consisting of […] of 67 mM sodium phosphate pH 7.4, 10 μl of 13.4 mM glutathione, 10 μl of 67 mM MgCl2, 10 μl of 26.7 mM TPP, 10 μl of 67 μM FAD, […] (i.e. approximately 6 μg) and 10 μl of 2.5 mM HPP. […]
The plate is then centrifuged at 2000 rpm for 15 min., and the supernatant is analysed by HPLC. […]

[2] = system: HPA-hydroxylase (protein extract from Pseudomonas acidovorans); assay: HPA-hydroxylase activity assay with inhibition by an HPPD inhibitor (HPLC detection of HMO); format: biochemical; conditions: 100 μM of HPPD inhibitor; 30° C., 5 min
Method: The cell pellet, which is approximately 0.5 g, is resuspended in 1.5 ml of extraction buffer (0.1 M potassium phosphate pH 7.2, 1 mM DTE and 5 mM MgMgSO4) and sonicated twice at 23 kHz for 2.5 min. The resulting suspension is centrifuged at 44,000×g for 20 min. The harvested supernatant is again centrifuged at 100,000×g for 60 min. The new supernatant is aliquoted in 0.1-ml fractions, these fractions being kept at −80° C. before use. The HPA-hydroxylase activity is measured in a 96-well microtitration plate with 200 μl of reaction per well consisting of 150 μl of 0.1 M sodium phosphate fits pH 7.2, 10 μl of 20 mM DTE, 10 μl of 3 mM NADH, 15 μl of 67 μM FAD, 10 μl of protein (i.e. approximately 7 μg) and 5 μl of 10 mM HPA. When an assay for inhibition by an HPPD inhibitor is carried out, 2 μl of 10 mM 4-[4-trifluoromethyl-2-(methylsulphonyl)benzoyl]-5-cyclopropylisoxazole are added to a phosphate buffer containing 20% of DMSO. The reaction is initiated by adding the substrate, HPA; it takes place at 30° C. for 5 min. with stirring. The reaction is stopped by adding 33 μl of 25% perchloric acid. The plate is then centrifuged at 2000 rpm for 15 min., and the supernatant is analysed by HPLC. 10 μl of the supernatant is injected onto a Spherisorb ODS2 column equilibrated with buffer A (5.5% acetonitrile, 0.1% TFA) at the flow rate of 1.5 ml/min. The detection is carried out at 292 nm. […]

SMILES: CS(=O)(=O)c1cc(C(F)(F)F)ccc1C(=O)c1cnoc1C1CC1 [HPPD inhibitor, 4-[4-trifluoromethyl-2-(methylsulphonyl)benzoyl]-5-cyclopropylisoxazole]
- inhibition of the enzyme transforming HPP into HPA [1]: not inhibited
- inhibition of the enzyme transforming HPA into HMO [2]: not inhibited
